Data: ChEMBL document CHEMBL6120945, “Peptidomimetic Analogues Act as Effective Inhibitors against SARS-CoV-2 by Blocking the Function of Cathepsin L” (J Med Chem, 2024)
Where a SMILES comes first, the peptide text is derived from it. [ ]: non-standard residue; d: D form. The star is where a group is joined. ξ: configuration not given here. Hydrocinnamoyl = O=C(CCc1ccccc1)*; Nicotinoyl = O=C(c1cccnc1)*; ξF = NC(Cc1ccccc1)C(=O)O; Cbz = O=C(OCc1ccccc1)*; Boc = CC(C)(C)OC(=O)*; Bz = O=C(c1ccccc1)*

Tested on: not listed separately
Test: Inhibition of human recombinant Cathepsin L-like protease using Z-FR-AMC as substrate preincubated for 30 mins followed by substrate addition and measured after 1.5 hrs by fluorescence based analysis

Row | SMILES | IC50 [nM]
1 | CC(C)C[C@H](NC(=O)OC(C)(C)C)C(=O)N[C@H](C=O)Cc1ccccc1 (Boc-Leu-Phe-aldehyde) | 165
2 | CC(C)C[C@H](NC(=O)C1CCC(F)(F)CC1)C(=O)N[C@H](C=O)Cc1ccccc1 | 6.29
3 | CC(C)C[C@H](NC(=O)/C=C/c1ccccc1)C(=O)N[C@@H](Cc1ccccc1)C(N)=O | > 1000
4 | COc1ccc(/C=C/C(=O)N[C@@H](CC(C)C)C(=O)N[C@H](C=O)Cc2ccccc2)cc1 | 55.4
5 | CC(C)C[C@H](NC(=O)/C=C/c1ccccc1Cl)C(=O)N[C@H](C=O)Cc1ccccc1 | 9.57
6 | O=C[C@H](Cc1ccccc1)NC(=O)[C@H](Cc1ccc(Cl)cc1)NC(=O)/C=C/c1ccccc1 | 8.91
7 | C=CC(=O)[C@H](Cc1ccccc1)NC(=O)[C@H](CC(C)C)NC(=O)/C=C/c1ccccc1 | > 1000
8 | CCC(=O)[C@H](Cc1ccccc1)NC(=O)[C@H](CC(C)C)NC(=O)/C=C/c1ccccc1 | > 1000
9 | CC(C)C[C@H](NC(=O)/C=C/c1ccccc1)C(=O)N[C@@H](Cc1ccccc1)C(=O)CCl | 9.87
10 | CC(C)C[C@H](NC(=O)/C=C/c1cccc(Cl)c1)C(=O)N[C@H](C=O)Cc1ccccc1 | 27.1
11 | CC(C)C[C@H](NC(=O)CCc1ccccc1)C(=O)N[C@H](C=O)Cc1ccccc1 (Hydrocinnamoyl-Leu-Phe-aldehyde) | 18.2
12 | CC(C)C[C@H](NC(=O)c1ccoc1)C(=O)N[C@H](C=O)Cc1ccccc1 | 24.2
13 | CC(C)C[C@H](NC(=O)/C=C/c1ccccc1)C(=O)N[C@H](C=O)Cc1ccc([N+](=O)[O-])cc1 | 345
14 | CC(C)C[C@H](NC(=O)c1ccc(Cl)cc1)C(=O)N[C@H](C=O)Cc1ccccc1 | 9.47
15 | CC(C)C[C@H](NC(=O)c1ccccc1F)C(=O)N[C@H](C=O)Cc1ccccc1 | 9.66
16 | CSCC[C@@H](C=O)NC(=O)[C@H](CC(C)C)NC(=O)/C=C/c1ccccc1 | 29.4
17 | CC(C)C[C@H](NC(=O)/C=C/c1ccccc1)C(=O)N[C@H](C=O)Cc1ccccc1F | 23.4
18 | CC(C)C[C@H](NC(=O)c1cccnc1)C(=O)N[C@H](C=O)Cc1ccccc1 (Nicotinoyl-Leu-Phe-aldehyde) | 14.4

Row | SMILES | IC50 [nM]
19 | CC(C)C[C@H](NC(=O)/C=C/c1ccc(Br)cc1)C(=O)N[C@H](C=O)Cc1ccccc1 | 38.4
20 | CC(C)C[C@H](NC(=O)/C=C/c1ccccc1)C(=O)N[C@H](C=O)Cc1ccc(C(F)(F)F)cc1 | 253
21 | CC(C)C[C@H](NC(=O)c1ccncc1)C(=O)N[C@H](C=O)Cc1ccccc1 | 8.46
22 | CC(C)C[C@H](NC(=O)c1cccc2ccccc12)C(=O)N[C@H](C=O)Cc1ccccc1 | 1.26
23 | CC(C)[C@H](NC(=O)OCc1ccccc1)C(=O)NC(C=O)Cc1ccccc1 (stereo partly drawn) (Cbz-Val-[ξF]-aldehyde) | 19900
24 | CC(C)C[C@H](NC(=O)/C=C/c1ccccc1)C(=O)N[C@H](C=O)Cc1ccccc1Cl | 58
25 | CC(C)C[C@H](NC(=O)/C=C/c1ccccc1)C(=O)N[C@H](C=O)C(C)C | 23.4
26 | C[C@H](NC(=O)/C=C/c1ccccc1)C(=O)N[C@H](C=O)Cc1ccccc1 | 42.1
27 | CC(C)C[C@H](NC(=O)c1ccccn1)C(=O)N[C@H](C=O)Cc1ccccc1 | 26.4
28 | CC(C)C[C@H](NC(=O)c1ccc(-c2ccccc2)cc1)C(=O)N[C@H](C=O)Cc1ccccc1 | 20.9
29 | CC(C)C[C@H](NC(=O)c1ccc(Br)cc1)C(=O)N[C@H](C=O)Cc1ccccc1 | 9.59
30 | COc1ccc(C(=O)N[C@@H](CC(C)C)C(=O)N[C@H](C=O)Cc2ccccc2)cc1 | 6.06
31 | CC(C)C[C@H](NC(=O)c1cc2ccccc2[nH]1)C(=O)N[C@H](C=O)Cc1ccccc1 | 10.1
32 | CC(C)C[C@H](NC(=O)c1ccco1)C(=O)N[C@H](C=O)Cc1ccccc1 | 17.4
33 | CC(C)C[C@H](NC(=O)c1ccc2ccccc2c1)C(=O)N[C@H](C=O)Cc1ccccc1 | 2.83
34 | CC(C)C[C@H](NC(=O)c1ccccc1)C(=O)N[C@H](C=O)Cc1ccccc1 (Bz-Leu-Phe-aldehyde) | 7.56
35 | CC(C)[C@H](NC(=O)/C=C/c1ccccc1)C(=O)N[C@H](C=O)Cc1ccccc1 | 22
36 | O=C[C@H](Cc1ccccc1)NC(=O)[C@H](CC1CCCCC1)NC(=O)/C=C/c1ccccc1 | 53

Target: Replicase polyprotein 1ab (Severe acute respiratory syndrome coronavirus 2, UniProt P0DTD1)
Test: Inhibition of recombinant SARS-CoV-2 3CLpro using MCA-AVLQSGFR-Lys(Dnp)-Lys-NH2 as substrate incubated for 1.5 hrs by fluorescence based analysis

Row | SMILES | IC50 [µM]
37 | CC(C)C[C@H](NC(=O)OC(C)(C)C)C(=O)N[C@H](C=O)Cc1ccccc1 (Boc-Leu-Phe-aldehyde) | > 10
38 | CC(C)C[C@H](NC(=O)C1CCC(F)(F)CC1)C(=O)N[C@H](C=O)Cc1ccccc1 | > 10
39 | CC(C)C[C@H](NC(=O)/C=C/c1ccccc1)C(=O)N[C@@H](Cc1ccccc1)C(N)=O | > 10
40 | COc1ccc(/C=C/C(=O)N[C@@H](CC(C)C)C(=O)N[C@H](C=O)Cc2ccccc2)cc1 | > 10
41 | CC(C)C[C@H](NC(=O)/C=C/c1ccccc1Cl)C(=O)N[C@H](C=O)Cc1ccccc1 | > 10
42 | O=C[C@H](Cc1ccccc1)NC(=O)[C@H](Cc1ccc(Cl)cc1)NC(=O)/C=C/c1ccccc1 | > 10
43 | C=CC(=O)[C@H](Cc1ccccc1)NC(=O)[C@H](CC(C)C)NC(=O)/C=C/c1ccccc1 | > 10
44 | CCC(=O)[C@H](Cc1ccccc1)NC(=O)[C@H](CC(C)C)NC(=O)/C=C/c1ccccc1 | > 10
45 | CC(C)C[C@H](NC(=O)/C=C/c1ccccc1)C(=O)N[C@@H](Cc1ccccc1)C(=O)CCl | > 10
46 | CC(C)C[C@H](NC(=O)/C=C/c1cccc(Cl)c1)C(=O)N[C@H](C=O)Cc1ccccc1 | > 10
47 | CC(C)C[C@H](NC(=O)CCc1ccccc1)C(=O)N[C@H](C=O)Cc1ccccc1 (Hydrocinnamoyl-Leu-Phe-aldehyde) | > 10
48 | CC(C)C[C@H](NC(=O)c1ccoc1)C(=O)N[C@H](C=O)Cc1ccccc1 | > 10
49 | CC(C)C[C@H](NC(=O)/C=C/c1ccccc1)C(=O)N[C@H](C=O)Cc1ccc([N+](=O)[O-])cc1 | > 10
50 | CC(C)C[C@H](NC(=O)c1ccc(Cl)cc1)C(=O)N[C@H](C=O)Cc1ccccc1 | > 10
51 | CC(C)C[C@H](NC(=O)c1ccccc1F)C(=O)N[C@H](C=O)Cc1ccccc1 | > 10
52 | CSCC[C@@H](C=O)NC(=O)[C@H](CC(C)C)NC(=O)/C=C/c1ccccc1 | > 10
53 | CC(C)C[C@H](NC(=O)/C=C/c1ccccc1)C(=O)N[C@H](C=O)Cc1ccccc1F | > 10
54 | CC(C)C[C@H](NC(=O)c1cccnc1)C(=O)N[C@H](C=O)Cc1ccccc1 (Nicotinoyl-Leu-Phe-aldehyde) | > 10

Row | SMILES | IC50 [µM]
55 | CC(C)C[C@H](NC(=O)/C=C/c1ccc(Br)cc1)C(=O)N[C@H](C=O)Cc1ccccc1 | > 10
56 | CC(C)C[C@H](NC(=O)/C=C/c1ccccc1)C(=O)N[C@H](C=O)Cc1ccc(C(F)(F)F)cc1 | > 10
57 | CC(C)C[C@H](NC(=O)c1ccncc1)C(=O)N[C@H](C=O)Cc1ccccc1 | > 10
58 | CC(C)C[C@H](NC(=O)c1cccc2ccccc12)C(=O)N[C@H](C=O)Cc1ccccc1 | > 10
59 | CC(C)C[C@H](NC(=O)/C=C/c1ccccc1)C(=O)N[C@H](C=O)Cc1ccccc1Cl | > 10
60 | CC(C)C[C@H](NC(=O)/C=C/c1ccccc1)C(=O)N[C@H](C=O)C(C)C | > 10
61 | C[C@H](NC(=O)/C=C/c1ccccc1)C(=O)N[C@H](C=O)Cc1ccccc1 | > 10
62 | CC(C)C[C@H](NC(=O)c1ccccn1)C(=O)N[C@H](C=O)Cc1ccccc1 | > 10
63 | CC(C)C[C@H](NC(=O)c1ccc(-c2ccccc2)cc1)C(=O)N[C@H](C=O)Cc1ccccc1 | > 10
64 | CC(C)C[C@H](NC(=O)c1ccc(Br)cc1)C(=O)N[C@H](C=O)Cc1ccccc1 | > 10
65 | COc1ccc(C(=O)N[C@@H](CC(C)C)C(=O)N[C@H](C=O)Cc2ccccc2)cc1 | > 10
66 | CC(C)C[C@H](NC(=O)c1cc2ccccc2[nH]1)C(=O)N[C@H](C=O)Cc1ccccc1 | > 10
67 | CC(C)C[C@H](NC(=O)c1ccco1)C(=O)N[C@H](C=O)Cc1ccccc1 | > 10
68 | CC(C)C[C@H](NC(=O)c1ccc2ccccc2c1)C(=O)N[C@H](C=O)Cc1ccccc1 | > 10
69 | CC(C)C[C@H](NC(=O)c1ccccc1)C(=O)N[C@H](C=O)Cc1ccccc1 (Bz-Leu-Phe-aldehyde) | > 10
70 | CC(C)[C@H](NC(=O)/C=C/c1ccccc1)C(=O)N[C@H](C=O)Cc1ccccc1 | > 10
71 | O=C[C@H](Cc1ccccc1)NC(=O)[C@H](CC1CCCCC1)NC(=O)/C=C/c1ccccc1 | > 10
